Laboratory results from patent US6867210B2, “Aryl substituted pyrimidines” (Euro-Celtique S.A., priority 2000, dated 2005).
pKi: −log10 of the molar value. Like-named read-outs stand apart in the source and are kept apart here.

What was measured:
[1] = test system: maximal electroshock-induced seizures (MES); assay: Maximum electroshock seizure test (MES), anticonvulsant evaluation; format: in vivo; details: Mus musculus, mice
Description: The compounds of the present invention may be tested for in vivo anticonvulsant activity after i.v., p.o. or i.p. injection using a number of anticonvulsant tests in mice, including the maximum electroshock seizure test (MES). Maximum electroshock seizures were induced in male NSA mice weighing between 15-20 g and male Sprague-Dawley rats weighing between 200-225 g by application of current (50 mA, 60 pulses/sec, 0.8 msec pulse width, 1 sec duration, D.C., mice; 99 mA, 125 pulses/sec, 0.8 msec pulse width, 2 sec duration, D.C., rats) using a Ugo Basile ECT device (Model 7801). Mice were restrained by gripping the loose skin on their dorsal surface and saline-coated corneal electrodes were held lightly against the two corneae. Rats were allowed free movement on the bench top and ear-clip electrodes were used. […] A tonic seizure was defined as a hindlimb extension in excess of 90 degrees from the plane of the body. Results were treated in a quantal manner.
The ability of 4-[4-(4-fluorophenoxy)phenyl]-pyrimidine-2-carboxamide to block maximal electroshock-induced seizures (MES) was determined according to the method above.
4-[4-(4-Fluorophenoxy)phenyl]-pyrimidine-2-carboxamide was administered p.o. to mice 30 minutes before the test procedure.
The following compounds on Table 1 were tested accordingly after a p.o. administration and also after an i.v. injection. The compounds were injected i.v. 15 minutes before the test procedure.

[2] = target: rBIIA isoform of Na+ channels (Rattus norvegicus, UniProt P04775); assay: Electrophysiological Assay 1: patch-clamp of voltage-sensitive Na+ currents in HEK-293 cells; format: cell-based; details: HEK-293 cells stably expressing rBIIA; for pKi: apparent antagonist dissociation constant for inactivated sodium channels
Experimental: Cell preparation: HEK-293 (NaIIA-B2) cell line stably expressing the rBIIA isoform of Na^+ channels was established in-house. The cells were cultured using standard techniques, as described previously (Verdoom, T. A, et al., Neuron 4:919-928 (1990)). For electrophysiology, cells were plated onto poly-D-lysine pre-coated Cellware 35 mm Petri dishes (BIOCOAT, Becton Dickinson) at a density of ˜10^4 cells/dish on the day of re-seeding from confluent cultures. Our experience has been that cells are suitable for recordings for 2-3 days after plating.
Patch-clamp recordings of voltage-sensitive Na^+ currents: Whole-cell voltage-clamp recordings were made using conventional patch-clamp techniques (Hamill et al., Pfluegers Arch. 391:85-100 (1981)) with an Axopatch 200A amplifier (Axon Instruments, Foster City, Calif.). The recording chamber was continuously superfused with the external solution (150 mM NaCl, 5.4 mM KCl, 1.8 mM CaCl2, 1 mM MgCl2, 10 mM HEPES, 10 mM glucose, pH 7.4 adjusted with NaOH, osmolality ˜320 mmol/kg) at a speed of about 1 mL/min. Recording pipettes were pulled from the thick-walled capillaries (WPI, Sarasota, Fla.) and fire-polished. The pipette resistances ranged from 1 to 3 MΩ when the pipettes were filled with internal solution containing (in mM): 130 CsF, 20 NaCl, 2 MgCl2, 10 EGTA, 10 HEPES, pH adjusted to 7.4 with CsOH, osmolality ˜310 mmol/kg. Drugs and intervening wash-outs were applied through a linear array of flow pipes (Drummond Microcaps, 2 μL, 64-mm length). Compounds are dissolved in dimethylsulfoxide (DMSO) to make a 30 mM stock solution, which was subsequently diluted into the external solution to give final concentrations of 0.1-100 μM. At the highest (1%) concentration, DMSO inhibited the size of Na^+ current only slightly. Currents were recorded at room temperature (22-25° C.), filtered at 3 kHz with an active 8-pole Bessel filter (Frequency Devices, Haverhill, Mass.), digitized at 10-50 μs intervals, and stored using Digidata 1200 analog/digital interface with Pclamp6/Clampex software (Axon Instruments). Series resistance was cancelled typically by ˜75% when necessary.
The following voltage pulse protocols A, B, C, and D were used to assess the potency and kinetics of inhibition of the Na^+ channels by the compounds (FIGS. 1A-1D).
Current-voltage relationship (IV-curve), protocol A (FIG. 1A), was used to report the voltage at which the maximal inward Na^+ current is achieved. This voltage was used throughout the experiment as testing voltage, Vt. The steady-state inactivation (or, availability) curve, protocol C (FIG. 1C), was used to get the voltage at which almost complete (≧95%) inactivation of Na^+ channels occurs; it served as voltage for conditioning prepulse, Vc, throughout the experiment. Protocol B (FIG. 1B) reports how fast the channels recover from inactivation at hyperpolarized voltages. This permitted us to set up the duration of the hyperpolarization gap which is used in measurement of the kinetics of binding of compounds to inactivated Na^+ channels (protocol D (FIG. 1D)). Channel repriming under control conditions was fast (≧90% recovery during first 5-10 ms). If a drug substantially retards the repriming process then it becomes possible (protocol D) to accurately measure the kinetics of binding of the inhibitor to inactivated channels as well as the steady-state affinity (k+ and Ki). To estimate k+ values the reduction in peak currents in successive trials with varying pre-pulse duration was plotted as a function of pre-pulse duration and the time constant (τ) measured by mono-exponential fit. A plot of 1/τ as a function of antagonist concentration then allowed calculating of the macroscopic binding rates of the antagonists. […]

[3] = test system: Chung model of neuropathic pain (tactile allodynia); assay: Chung model of neuropathic pain, tactile antiallodynia effect; format: in vivo; details: rats, p.o.
Description: The compounds may be tested for their potential for the treatment of chronic pain (antiallodynic and antihyperalgesic activities) in the Chung model of peripheral neuropathy. Male Sprague-Dawley rats weighing between 200-225 g were anesthetized with halothane (1-3% in a mixture of 70% air and 30% oxygen) and their body temperature controlled during anesthesia through use of a homeothermic blanket. A 2-cm dorsal midline incision was then made at the L5 and L6 level and the para-vertibral muscle groups retracted bilaterally. L5 and L6 spinal nerves were then be exposed, isolated, and tightly ligated with 6-0 silk suture. A sham operation was performed exposing the contralateral L5 and L6 spinal nerves as a negative control.
Tactile Allodynia: Rats were transferred to an elevated testing cage with a wire mesh floor and allowed to acclimate for five to ten minutes. A series of Semmes-Weinstein monofilaments were applied to the plantar surface of the hindpaw to determine the animal's withdrawal threshold. […] This procedure was repeated with subsequent lesser filaments until there was no response and the lightest filament that elicited a response was recorded. […] For each animal, three measurements were made at every time point to produce an average withdrawal threshold determination. Tests were performed prior to and at 1, 2, 4 and 24 hours post drug administration. Tactile allodynia and mechanical hyperalgesia tests were conducted concurrently.
The tactile antiallodynia effect of the compounds listed in Table 4 was tested in the Chung model of neuropathic pain in rats as described above and described by Kim and Chung (Pain 50:355-363 (1992)). […]

[4] = iv, i.v. injection 15 minutes before the test, read-out: MES i.v. ED50
[5] = po, p.o., 30 minutes before the test, ED50 = dose protecting 50% of animals, read-out: MES p.o. ED50

SMILES | pKi [2] | inhibition of voltage-gated sodium currents [2] | melting point [°C] | ED50 [1, 4] [mg/kg] | ED50 [1, 5] [mg/kg] | MED (minimal effective dose) [3] [Mg/kg]
NC(=O)c1nccc(-c2ccc(Oc3ccc(F)cc3F)cc2)n1 [4-[4-(2,4-Difluorophenoxy)phenyl]-pyrimidine-2-carboxamide] | 6.44 |  |  | 0.9 | 1.4 | 
NC(=O)c1ccnc(-c2ccc(Oc3ccc(F)cc3)cc2)n1 [2-[4-(4-Fluorophenoxy)phenyl]pyrimidine-4-carboxamide] | 7.00 |  |  | 2.5 | 7.5 | 2.50
NC(=O)c1nc(-c2ccc(Oc3ccccc3)cc2)c(N)nc1N [3,5-Diamino-6-(4-phenoxyphenyl)pyrazine-2-carboxamide] | 5.66 |  |  |  |  | 
Fc1ccc(Oc2ccc(-c3nccc(-c4nc[nH]n4)n3)cc2)cc1 [2-[4-(4-fluorophenoxy)phenyl]-4-[3-(1,2,4-triazolyl)]pyrimidine] | 4.70 |  |  |  |  | 
NC(=O)c1nccc(-c2ccc(Oc3ccc(F)cc3)cc2)n1 [4-[4-(4-Fluorophenoxy)phenyl]-pyrimidine-2-carboxamide] | 6.31 | dose-dependent inhibition |  | 0.7 | 1.6 | 
NC(=O)c1ccnc(-c2ccc(Oc3ccc(Cl)cc3F)cc2)n1 [2-[4-(4-Chloro-2-fluorophenoxy)phenyl]pyrimidine-4-carboxamide] | 6.66 |  |  | 2.3 | 5.7 | 1.25

Second part, led by results:

pKi [2] | inhibition of voltage-gated sodium currents [2] | melting point [°C] | SMILES | ED50 [1, 4] [mg/kg] | ED50 [1, 5] [mg/kg] | MED (minimal effective dose) [3] [Mg/kg]
6.74 |  |  | CC(C)(C)NC(=O)c1nccc(-c2ccc(Oc3ccc(F)cc3)cc2)n1 [4-[4-(4-Fluorophenoxy)phenyl]-pyrimidine-2-carboxylic acid tert-butylamide] |  |  | 
6.68 |  |  | NC(=O)c1nccc(-c2ccc(Oc3ccc(C(F)(F)F)cc3)cc2)n1 [4-[4-(4-Trifluoromethylphenoxy)phenyl]-pyrimidine-2-carboxamide] | 0.5 | 2.5 | 
4.87 |  |  | CN(C)C(=O)c1nccc(-c2ccc(Oc3ccc(F)cc3)cc2)n1 [4-[4-(4-Fluorophenoxy)phenyl]-pyrimidine-2-carboxylic acid dimethylamide] |  |  | 
4.29 |  |  | O=C(O)c1nccc(-c2ccc(Oc3ccc(F)cc3)cc2)n1 [4-[4-(4-Fluorophenoxy)phenyl]-pyrimidine-2-carboxylic acid] |  |  | 
 |  | 178 to 180 | NC(=O)c1cccc(-c2ccc(Oc3ccccc3)cc2)n1 [6-(4-Phenoxyphenyl)pyridine-2-carboxamide] | 3.2 | 10.5 | 
7.15 |  |  | NC(=O)c1cccc(-c2ccc(Oc3ccc(F)cc3)cc2)n1 [6-[4-(4-Fluorophenoxy)phenyl]pyridine-2-carboxamide] | 1.2 | 3.3 | 2.50
